# Results published in US8865653B2, “Method of treatment for immunogenic treatment resistant cancer” (Institut Gustave Roussy, priority 2010, dated 2014).
# Columns and labels:
# [1] = system: CT26 (ATG5 or ATG7 knock down, WT); experiment: Chemotherapy of established autophagy-deficient CT26 tumors ± apyrase inhibitor; type: in vivo, mice
# Description: One million CT26 knock down with small interfering RNA specific for ATG5 or ATG7 or controls WT were treated with the anthracyclin mitoxanthrone (MTX) at 8 days post-implantation in one flank of a naïve animal (BALB/C mouse). […] Monitoring of tumor growth was recorded with a caliper (product of perpendicular diameters) and is depicted for 5 mice/group. Statistical analyses were performed with Anova test (Fisher's exact method) with significant results at p<0.05.
# [2] = system: CT26 overexpressing LC3-GFP; experiment: Induction of autophagy in vivo, LC3-GFP redistribution; set-up: species or system mice; conditions: i.v., tumors withdrawn 48 hours post-therapy
# Description: After 8 days of tumor implantation (CT26 mouse colon cancer genetically modified to overexpress LC3-GFP in BALB/c immunocompetent mice), oxaliplatin or mitoxanthrone was inoculated systemically (i.v.). Tumors were withdrawn at 48 hours post-therapy and immunofluorescence stainings were performed on frozen sections of tumor tissues to visualize nuclei (in Hoechst blue), and autophagosomes in green (LC3-GFP). […] The lower panel is a graph summarizing enumeration of autophagosomes positive cells in 10 independent sections per tumor and animal (each dot represents one tumor). Statistical analyses were performed with Anova test (Fisher's exact method) with significant results at p<0.05.
# [3] = system: MCA205; experiment: Tumor vaccination with MTX-treated MCA205 and rechallenge; type: in vivo; conditions: s.c. injection of MTX treated MCA205 cells, WT mice (not athymic nude mice)
# Description: MCA205 cells were treated with 2 μM MTX for 18 hrs, washed thoroughly and injected into left flank subcutaneously at 0.3 million/mouse. PBS was used as control. Mice were rechallenged with 5×10^4 live MCA205 cells in the right flank 7 days later. Tumor growth was monitored every 2-3 days.
# [4] = system: U2OS cells; experiment: US Drug library screen: CRT-GFP, HMGB1-GFP, quinacrine; conditions: 1 μM, 4 h / 24 h / 16 h
# [5] = system: U2OS cells stably expressing CRT-GFP; experiment: CRT-GFP redistribution (granularity, nuclear shape) by automated microscopy; ICCB library screen; type: cell-based, human; conditions: for CRT-GFP granularity (relocation to peripheral granular distribution): 1 μM MTX, 150 μM CDDP, 300 μM OXP; for CRT-GFP granularity / CRT exposure in library screen in the presence vs absence of CDDP: ICCB library, 4 h, with CDDP
# Description: The data is depicted as mean±s.e.m. of quadruplicates from a representative experiment. (C) Immunofluorescene was conducted on CRT-GFP expressing cells by means of staining with anti-CRT antibody and subsequent confocal image acquisition. (D) CRT has been cloned in frame n-terminal to a HaloTag® sequence followed by a KDEL ER retention signal. (E) The impermeable HaloTag® ligand forms covalent bonds exclusively with surface exposed HaloTag®-CRT fusion protein, whereas intracellular HaloTag®-CRT remains undetected.
# Compounds from the ICCB known bioactive compounds library have been tested for their capacity to induce CRT-exposure. […] The cells were incubated for 4 h and were acquired by means of automated microscopy. The data is depicted as dot plots and representative images (B).
# After washing with PBS 4 viewfields per well were acquired by means of a BD pathway 855 automated microscope.
# [6] = target: AHR (Homo sapiens, UniProt P35869); conditions: pure antagonist of AHR; cited from earlier work
# AHR, sequence (P35869 11-848, species assumed): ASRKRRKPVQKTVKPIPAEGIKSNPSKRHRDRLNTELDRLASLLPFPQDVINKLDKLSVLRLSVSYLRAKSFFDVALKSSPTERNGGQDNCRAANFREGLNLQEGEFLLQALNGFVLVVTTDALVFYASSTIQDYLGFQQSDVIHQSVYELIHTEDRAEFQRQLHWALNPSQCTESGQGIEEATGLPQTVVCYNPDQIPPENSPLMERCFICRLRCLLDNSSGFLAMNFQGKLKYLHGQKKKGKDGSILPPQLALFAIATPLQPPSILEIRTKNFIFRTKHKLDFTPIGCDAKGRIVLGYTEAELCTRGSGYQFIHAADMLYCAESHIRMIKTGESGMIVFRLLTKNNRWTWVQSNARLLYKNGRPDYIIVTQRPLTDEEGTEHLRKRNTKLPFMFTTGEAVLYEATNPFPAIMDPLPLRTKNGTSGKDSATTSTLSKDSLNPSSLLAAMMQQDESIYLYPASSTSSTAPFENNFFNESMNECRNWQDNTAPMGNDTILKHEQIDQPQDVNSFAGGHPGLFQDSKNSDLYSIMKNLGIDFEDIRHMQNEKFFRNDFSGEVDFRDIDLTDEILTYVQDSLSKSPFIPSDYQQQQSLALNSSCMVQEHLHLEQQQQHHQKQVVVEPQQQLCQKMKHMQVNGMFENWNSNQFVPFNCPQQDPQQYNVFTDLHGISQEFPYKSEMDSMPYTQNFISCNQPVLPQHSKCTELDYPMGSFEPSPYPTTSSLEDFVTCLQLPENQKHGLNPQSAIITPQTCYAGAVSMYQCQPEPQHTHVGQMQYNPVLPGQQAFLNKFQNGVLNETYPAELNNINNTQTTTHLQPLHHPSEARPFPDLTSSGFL
# [7] = system: MCA205 sarcoma; experiment: Anthracycline chemotherapy of established MCA205 sarcoma (intratumoral DX); type: in vivo, mice; conditions: CH-223191 daily i.p. for 4 days from day of DX
# Description: 0.8 million MCA205 or CT26 or TS/A tumor cells were inoculated subcutaneously near the thigh into C57Bl/6 (H-2^b) or BALB/c (H-2^d) mice. Anthracyclines-based chemotherapy was performed in MCA205 and CT26 models by intratumoral injecting DX (2 mM, […]) when tumors reached the size 25-40 mm^2. Radiotherapy was performed by local X-ray irradiation (10 Gy, RT250, Phillips) at the unshielded tumor area when TS/A tumor reached the size 40-60 mm^2.
# [8] = system: MCA205; experiment: Pro-apoptotic effect on MCA205, DiOC6(3) fluorescence; type: cell-based, mouse; conditions: alone or in combination with anthracyclines (DX, MTX)
# Description: (B) The impact of AHR pharmacological inhibitor CH-223191 on pro-apoptotic effect of DX or MTX against MCA205 was measured. A reduction in mitochondrial membrane potential indicated by decreased DiOC6(3) fluorescence was used to show cell apoptosis. The experiment was performed twice with identical results.
# [9] = system: U2OS cells; experiment: Analysis of surface exposed CRT (HaloTag ligand, anti-CRT immune staining)
# [10] = system: MCA205 cells; conditions: Martins I et al, Oncogene 2010; cited from earlier work
# [11] = system: U2OS cells; type: cell-based
# Description: The data is depicted as representative images (A) and (B) normalized Bax-GFP granularity values.
# The data represents mean±s.e.m. of quadruplicates from a representative experiment. […] 16 h after treatment, cell death was monitored by simultaneous staining with 3,3 dihexyloxacarbocyanine iodide (DiOC6(3)) and propidium iodide (PI), and the percentage of dying (DiOC6(3)^low PI^−, open bars) and dead (DiOC6(3)^low PI^+, closed bars) cells was determined by cytofluorometry.
# Cell death was quantified by cytofluorometric analysis using a FACS Vantage (Becton Dickinson, Mountain View, USA) as described previously (REF). Thus, cells were stained with 40 nM 3,3 dihexyloxacarbocyanine iodide (DiOC6(3); Molecular Probes, Eugene, Oreg., USA) for 30 min at 37° C. and concomitantly with 1 μg/ml propidium iodide (PI; Sigma Aldrich) for 30 min at 37° C. to determine the mitochondrial transmembrane potential. Data were statistically evaluated using CellQuest Pro software (Becton Dickinson, Mountain View, USA).
# [12] = system: MCA205 cells; experiment: In vivo anti-tumor vaccination with treated MCA205 cells (Example 3)
# Description: (F) MCA205 cells have been used for tumor vaccination in vivo. […] The mice have been rechallenged after 6 days with living cells and the tumor growth is depicted in the survival plot (n=10).
# Tumor growth was evaluated for at least 50 days.
# [13] = system: CT26 (siATG5, siATG6, siATG7); experiment: Prophylactic immunization with autophagy-deficient dying CT26 cells ± apyrase inhibitor; type: in vivo; conditions: anthracycline-treated cells injected s.c., immunocompetent mice
# Description: One million CT26 knock down with small interfering RNA specific for ATG5, ATG6 (Beclin 1 BCN1), or ATG7 or controls siCO were treated with the anthracyclin mitoxanthrone (MTX) for 18 hours, washed and inoculated in one flank of a naïve animal (BALB/C mouse). Positive controls are CT26 treated with MTX and negative controls are CT26 treated with PBS. Ten days later, mice were rechallenged with 3× the minimal tumorigenic dose of live CT26 cells on the opposite flank and monitoring of tumor growth was recorded with a caliper (product of perpendicular diameters). The % of tumor free animals are shown in the graph and the number of animals per group is indicated (n=20). Statistical analyses were performed with Anova test (Fisher's exact method) with significant results at p<0.05.
# Idem as in FIG. 40 but the dying cells (siCO or siATG7) were admixed (or not) with apyrase inhibitors (AI) (apyrases are enzymes hydrolyzing ATP in the extracellular milieu) and/or suramine (SUR) or oxidized ATP (OXY), both inhibitors of purinergic receptors at the conventional dosing (previously reported). The % of tumor free animals are shown in the graph and the number of animals per group is indicated (n=20). Statistical analyses were performed with Anova test (Fisher's exact method) with significant results at p<0.05.
# [14] = system: EL4 thymoma; experiment: Chemotherapy and Dendrophilin treatment of established EL4 tumors; type: in vivo, mice; conditions: oxaliplatin 5 mg per kg i.p.
# Description: WT or loss-of-function mice were injected in the right flank with 1×10^6 of EL4 or CT26 or MCA205 cells. Mice were then randomly assigned into treatment groups of 4-6 mice each. […] Two and/or four days after chemo treatment, mice were treated with Dendrophilin or LPS (2 μg in 100 μl NaCl per mouse i.v or i.t). […] Tumor growths were monitored every 3-4 days using a caliper.
# [15] = system: U2OS cells; experiment: ATP release assays (quinacrine, luciferin-based); type: cell-based, human; conditions: 16 h post-treatment, intracellular and extracellular ATP
# Description: In short, cells were labeled with 1 μM quinacrine in Krebs-Ringer solution (125 mM NaCl, 5 mM KCl, 1 mM MgSO4, 0.7 mM KH2PO4, 2 mM CaCl2, 6 mM glucose and 25 mM Hepes, pH 7.4) for 30 min at 37° C.
# After incubation in quinacrine solution (as described above), cells were rinsed and resuspended in PBS containing 1 μg/ml PI. The samples were analyzed by means of a FACS Vantage (Becton Dickinson) and the data was statistically evaluated using the CellQuest Pro software (BD Biosciences).
# After cell death induction, extracellular ATP was measured by luciferin-based ENLITEN ATP Assay (Promega, Madison, USA) following the manufacturer's instructions. Intracellular ATP was measured using an ATP Assay kit (Calbiochem, Darmstadt, Germany) based on luciferin-luciferase conversion following the manufacturer's instructions. For assessment of the chemoluminescent signal, the plates were read in a Fluostar luminometer (BMG Labtech).
# [16] = system: eIF2α; experiment: Immunoblotting of eIF2α / PERK phosphorylation; type: cell-based
# From the text: (E) The phosphorylation status of eIF2α has been assessed by immunoblotting against the phosphoneoepitope Ser51 of eIF2α by means of a monoclonal antibody. A polyclonal antibody has been used to visualize whole eIF2α protein levels.
# [17] = system: CT26 and MCA cells; experiment: CRT exposure in single or cotreated cells (MitoC, cardiac glycosides); type: cell-based, mouse
# Description: (B) CRT exposure was analysed in the cells that were single or cotreated as indicated by means of CRT surface staining and FACS quantification.
# [18] = system: MCA205 cells; experiment: In vivo anti-tumor vaccination with MitoC / Digoxin treated MCA205 cells; set-up: species or system mice; conditions: 20 μM MitoC
# [19] = MTX at 8 days post-implantation
smiles,measurement,setting,value
"O=C1c2c(O)ccc(O)c2C(=O)c2c(NCCNCCO)ccc(NCCNCCO)c21 [MTX, mitoxantrone]",growth of ATG5 and ATG7 deficient tumors under MTX,[1]; [19],not controlled by MTX therapy
same,growth of CT26 WT tumors under MTX,[1]; [19],significantly respond
same,redistribution of LC3-GFP in autophagosomes in tumors,[2],Redistribution of LC3-GFP in autophagosomes can be visualized post-therapy
same,protection against rechallenge with live MCA205 tumor cells,[3],could protect WT mice
same,rank in screen for exposing CRT and emitting HMGB1 and ATP,[4],"most potent in exposing CRT, and emitting HMGB1 and ATP"
same,CRT-GFP granularity (relocation to peripheral granular distribution),[5],only observed after treatment of the cells with MTX or OXP
"Cc1ccccc1N=Nc1ccc(NC(=O)c2ccnn2C)c(C)c1 [CH-223191, 2-methyl-2H-pyrazole-3-carboxylic acid (2-methyl-4-o-tolylazo-phenyl)-amide]",concentration up to which no AHR agonist actions,[6],> 100 µM
same,effect on efficacy of DX on established cancers in vivo,[7],markedly reduced the efficacy of DX
same,cell-autonomous effects on the tumor cells,[8],no cell-autonomous effects on the tumor cells
"C/C=C(/C)C(=O)O[C@H]1C(C)=C2[C@H]([C@@H]1OC(=O)CCCCCCC)[C@@](C)(OC(C)=O)C[C@H](OC(=O)CCC)[C@@]1(O)[C@H]2OC(=O)[C@@]1(C)O [THAPS, thapsigargin]","CRT-GFP granularity, CRT-HaloTag exposure, native CRT exposure, THAPS alone",[9]; in the absence of CDDP,comparably inefficient
same,"CRT-GFP granularity, CRT-HaloTag exposure, native CRT exposure, THAPS with CDDP",[9]; in the presence of CDDP,highly efficient in the presence of CDDP
same,immunogenic cell death when combined with cisplatin,[10],could induce immunogenic cell death when combined with cisplatin
same,cytotoxic effects,[11],exhibited no major cytotoxic effects
same,effect on toxicity of CDDP,[11],did not increase the toxicity of CDDP
same,"anticancer immune response, vaccine of dying cells generated with CDDP combined with THAPS","[12]; MCA205, rechallenge with live cells",elicited an effective anticancer immune response in vivo
same,CRT-GFP granularity / CRT exposure in library screen in the presence vs absence of CDDP,[5],particularly efficient in inducing CRT-GFP granularity in the presence (but not in the absence) of CDDP
same,CRT-GFP granularity / CRT exposure in library screen in the presence vs absence of CDDP,[5]; listed as thapsigargin,the sole agent (out of 450 compounds) to induce CRT exposure in the presence of cisplatin but not in the absence of cisplatin
"CCN(CC)c1ncnc2c1ncn2C1OC(COP(=O)(O)OP(=O)(O)C(Br)(Br)P(=O)(O)O)C(O)C1O [ARL67156, 6-N,N-Diethyl-D-beta-gamma-dibromomethylene adenosine triphosphate]",response of autophagy-deficient tumours to anthracycline chemotherapy with intratumoural apyrase inhibitor,[1]; tumours established for 8 days,defect is again overcome
same,immunogenicity of autophagy-deficient dying tumour cells with co-injected apyrase inhibitor,[13],defect in immunogenicity can be restored
"O=C1[O][Pt]2([NH][C@@H]3CCCC[C@H]3[NH]2)[O]C1=O [OXP, oxaliplatin]",surface exposure of CRT-HaloTag,"[9]; cell-impermeable HaloTag ligand, microscopy and cytofluorometry",unless they were treated with immunogenic cell death inducers such as OXP
same,surface immunofluorescence staining of CRT,[9]; non-permeabilized CRT-GFP cells,actually extruded CRT
same,antitumor effects of chemotherapy alone,[14],only mild effects
same,ATP release,[15],induced ATP release
same,redistribution of LC3-GFP in autophagosomes in tumors,[2],Redistribution of LC3-GFP in autophagosomes can be visualized post-therapy
same,IC50,"[11]; short-term experiments, loss of the mitochondrial transmembrane potential ΔΨm, read-out: IC50, imminent cell death",~600 µM
same,"mitochondrial perturbations (ΔΨm dissipation, Bax-GFP relocation)",[11]; used at their IC50,induced similar mitochondrial perturbations
same,eIF2α phosphorylation on serine 51,[16]; phospho-neoepitope-specific antibody,much more efficient than CDDP
same,activating phosphorylation of PERK,[16]; shortly after treatment,detectable shortly after treatment with OXP
same,protective anticancer immune response after vaccination with drug-treated MCA205 cells,"[12]; s.c. injection, rechallenge with live tumor cells",readily induce such a tumor-protective response
same,CRT-GFP granularity (relocation to peripheral granular distribution),[5],only observed after treatment of the cells with MTX or OXP
"CO[C@@]12[C@H](COC(N)=O)C3=C(C(=O)C(C)=C(N)C3=O)N1C[C@@H]1N[C@@H]12 [MitoC, mitomycin C]","CRT exposure, MitoC by its own",[17],incapable of exposing CRT
same,"vaccinating effect, MitoC alone",[18],failed to confer any vaccinating effect
